According to patent US20250360087A1, “COMPOSITIONS COMPRISING LIPID DROPLETS ENCAPSULATED WITHIN POLYSACCHARIDE WALLS AND USES THEREOF” (UNIVERSITY OF SOUTH AUSTRALIA, priority 2022, published 2025):

Experiments:
S. aureus ATCC 25923 = assay: Minimum inhibitory concentration of rifampicin in S. aureus; type: cell-based; conditions: Staphylococcus aureus, ATCC25923; 24 h, 37° C., turbidity; read-out: MIC, concentration required to inhibit growth
Method: Single colonies of S. aureus ATCC 25923 were suspended in 0.9% sterile saline to reach approximately 1×10^8 colony forming units (CFU)/mL (equivalent to an optical density of 0.08-0.12 at 600 nm). The bacterial suspension was further diluted 1/100 with broth. Bacterial suspension was added to 96-wells. […] The 96-well plate was incubated at 37° C. for 24 h. The plates were visually assessed for turbidity indicating growth of bacteria.

S. aureus biofilms = assay: In vitro biofilm study, crystal violet assay; type: cell-based, Staphylococcus aureus
Method: Bacterial suspension was further diluted 1/15 with broth and subsequently added to the wells of a 96-well plate. The outer wells were filled with PBS (200 μL) for hydration purposes and the second right column contained sterile broth (100 μL) to serve as negative control. The plate was wrapped in aluminium foil and incubated on a 3D rotating platform at 70 rpm at 37° C. for 24 h to grow biofilms. After 24 h incubation, turbid biofilms sitting at the bottom of wells could be assessed visually. The broth in the wells of the plate was aspired gently by a vacuum pump without disturbing the biofilms and the wells were washed with 0.9% Saline (100 μL) twice to remove nonadherent bacteria. […] The plate was wrapped in aluminium foil and incubated on a 3D rotating platform at 70 rpm at 37° C. for 24 h. After 24 h of exposure to the formulations, supernatants were removed gently without disturbing the biofilms by a vacuum pump and the wells were washed with 0.9% Saline (100 μL) twice. Biofilms were fixed by oven heating at 60° C. for 1 h. […] The biofilm biomass of S. aureus was quantified by spectrometry at 595 nm in 96 well plate reader.

RAW 264.7 macrophages = assay: Cellular cytotoxicity, MTT assay; type: cell-based, Murine; conditions: after 1 h incubation
Method: 100 μL of cell suspension at a density of 7000 cells per well was seeded in 96-well plate and incubated (37° C., 5% CO2) for 12 h to allow the attachment of cells. After incubation the supernatant was discarded and replaced with 200 μL of particle solution (in DMEM) at various concentrations (ranging from 10 to 100 μg/mL) and incubated for further 24 h. After incubation, the cells were washed with sterile PBS and 10 μL of MTT (3-(4,5-dimethylthiazol-2-yl)-2,5-diphenyltetrazolium bromide) solvent was added to each well prior to incubation for a further 4 h. Afterward, the supernatant was discarded, and the absorbance was read at OD=540 nm using a microplate reader.

Compound | MIC (S. aureus ATCC 25923) [µg/mL] | biofilm biomass remaining (S. aureus biofilms; exposure to 1 μg/mL of rifampicin) [%] | reduction in biofilm biomass (S. aureus biofilms; rifampicin 16 μg/mL, 24 h) | biofilm reduction (S. aureus biofilms; rifampicin 1 to 16 μg/mL, 24 h) | cellular viability (positive control) (RAW 264.7 macrophages)
CO[C@H]1/C=C/O[C@@]2(C)Oc3c(C)c(O)c4c(O)c(c(/C=N/N5CCN(C)CC5)c(O)c4c3C2=O)NC(=O)/C(C)=C\C=C\[C@H](C)[C@H](O)[C@@H](C)[C@@H](O)[C@@H](C)[C@H](OC(C)=O)[C@@H]1C [rifampicin] | < 0.0156 | 34 | up to 82% | more than 50% | 
Triton-X |  |  |  |  | no cellular viability
